Laboratory results published in patent publication US20230293560A1, “METHOD FOR MODULATING THE BLADDER MICROBIOME TO IMPROVE BLADDER HEALTH” (Kimberly-Clark Worldwide, Inc., priority 2020, published 2023).

Columns and labels:
L. jensenii = assay: High throughput assay screening of prebiotics; type: cell-based, Lactobacillus jensenii; parameters: key: ++: if growth and fermentation was equal to or greater than the positive control; +: if growth and fermentation was less than the positive control; +: if weak or no growth or fermentation; +^2: Bacteria demonstrated growth but no fermentation on the prebiotic; conditions: 2% w/v prebiotic in API 50 CHL media
Protocol: Most of the prebiotic compounds were initially tested in a high throughput assay screening process, described further in the Test Methods section herein, but three prebiotics (as noted in Table 3) were tested using a plate assay screening process as described in the Test Methods section herein. The prebiotics were tested against the commensal bacterial species of Lactobacillus crispatus, Lactobacillus gasseri, and Lactobacillus jensenii and against the pathogenic bacterial species of Streptococcus anginosus and Enterococcus faecalis as shown in Table 2. The bacterial species were taken from different sources, listed as culture collection, bladder, and vagina.
The results of the assay plate screening of the prebiotic compounds of Table 1 against the bacterial species of Table 2 is documented in Table 3 with the results being described by the following legend: • ++ if growth and fermentation was equal to or greater than the positive control • + if growth and fermentation was less than the positive control • […] if weak or no growth or fermentation • NT if not tested Some codes were not tested based on the use or non-use by the bacteria, as a way to efficiently move through the assay plate screening to the competition assay, described below.
(§1) • 1. Create a 2% w/v stock of prebiotic or positive control (glucose/dextrose) to be tested in API 50 CHL media (Biomerieux, Marcy-I'Étoile, France). API 50 CHL media contains minimal amounts of carbon for growth, and a bromocresol purple as a pH indicator of fermentation. Filter sterilize media with a […]. Store at 4-6° C. until use. • 2. Add 180 μL of media containing the prebiotic to a sterile, flat bottom 96-well microtiter plate (Corning, Corning, NY). • 3. From a freezer stock subculture the bacteria twice into De Man, Rogosa and Sharpe (MRS) broth (BD Difco, Becton Dickinson, Franklin Lakes, NJ), 37° C., stationary, anaerobic, overnight. • 4. From the last subculture, plate onto an MRS agar plate (Teknova, Hollister, CA) and grow 37° C., stationary, anaerobic, overnight. • 5. Create a bacterial suspension by using a sterile tipped swab to transfer colonies of bacteria into a PBS suspension blank to a 0.5 MacFarland (S. anginosus or E. faecalis) or a 1 MacFarland (Lactobacillus species) from the MRS agar plate. • 6. Enumerate the starting culture. • 7. Inoculate the media alone and media containing the prebiotic or positive control with 20 μL of the bacterial suspension. • 8. Place the plate into a spectrophotometer (Molecular Devices, San Jose, CA) and read the plate every 20 minutes for 24-48 hours. Read wavelengths (OD 430, OD 590, and OD 660). A color change to yellow caused by a drop in pH will be read by an increase in the OD430 value and a decrease in the OD590 value and is indicative of bacterial fermentation. An increase in OD660 values is indicative of an increase in turbidity and bacterial growth.

L. crispatus = assay: High throughput assay screening of prebiotics; type: cell-based, Lactobacillus crispatus; parameters: key: ++: if growth and fermentation was equal to or greater than the positive control; +: if growth and fermentation was less than the positive control; +: if weak or no growth or fermentation; +^2: Bacteria demonstrated growth but no fermentation on the prebiotic; conditions: 2% w/v prebiotic in API 50 CHL media; for growth and fermentation vs positive control, Lc-4: L. crispatus KC18-1174-1, Vagina
In short: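 Prebiotic or glucose/dextrose positive control in API 50 CHL minimal-carbon medium with bromocresol purple, inoculated with bacterial suspension (0.5 McFarland streptococci/enterococci, 1 McFarland lactobacilli). Read every 20 min for 24-48 h; OD430 rise/OD590 fall marks fermentation, OD660 rise marks growth, scored versus positive control.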

E. coli = assay: Additional prebiotic screening against E. coli; type: cell-based, Escherichia coli; conditions: for # fermented, Ec-1 / # grew, Ec-1: E. coli KC16-7171-8, Bladder; for # fermented, Ec-1 / # grew, Ec-1 / # fermented, Ec-2 / # grew, Ec-2 / # fermented, Ec-3 / # grew, Ec-3 / # fermented, Ec-4 / # grew, Ec-4 / # fermented, Ec-5 / # grew, Ec-5: of 2 tested; for # fermented, Ec-2 / # grew, Ec-2: E. coli KC17-3969-1, Bladder; for # fermented, Ec-3 / # grew, Ec-3: E. coli KC17-3970-4, Vagina; for # fermented, Ec-4 / # grew, Ec-4: E. coli KC17-4296-4, Vagina; for # fermented, Ec-5 / # grew, Ec-5: E. coli KC17-4297-5, Bladder; for growth or fermentation of E. coli, in words: E. coli from vaginal or bladder source
Excerpt: Additional screening of three prebiotic compounds of alpha-methyl-D-glucoside, isomaltulose, and alpha cyclodextrin was completed against pathogenic bacteria species Escherichia coli from both bladder and vaginal sources, as shown in Table 4. The growth of the bacterial species for this additional screening process against E. coli was not compared to growth of a control as in the screening process documented in Table 3, but was documented based on growth or no growth for the number of samples tested.
as §1

[1] = test system: commensal and pathogenic bacterial species; assay: Prebiotic screening, summary in words across species; type: cell-based; conditions: commensal (L. crispatus, L. gasseri, L. jensenii) and pathogenic (S. anginosus, E. faecalis) species
In short: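 Prebiotics at 2% w/v stock in API 50 CHL medium with bromocresol purple, inoculated with bacteria and read every 20 min for 24-48 h at OD430/590 (fermentation) and OD660 (growth), scored against a glucose control. Some tested on MRS-based agar with the prebiotic in place of glucose; competition assay with L. crispatus and S. anginosus incubated 48 h anaerobically at 37 °C, then enumerated on MRS and TSA.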

| Structure (SMILES) | growth and fermentation vs positive control, Lj-2 (L. jensenii; L. jensenii KC17-4347-1, Bladder) | growth and fermentation vs positive control, Lc-2 (L. crispatus; L. crispatus KC16-7134-3C, Bladder) | growth and fermentation vs positive control, Lc-4 (L. crispatus) | # fermented, Ec-1 (E. coli) | # grew, Ec-1 (E. coli) | # fermented, Ec-2 (E. coli) | # grew, Ec-2 (E. coli) | # fermented, Ec-3 (E. coli) | # grew, Ec-3 (E. coli) | # fermented, Ec-4 (E. coli) | # grew, Ec-4 (E. coli) | # fermented, Ec-5 (E. coli) | # grew, Ec-5 (E. coli) | growth or fermentation of E. coli, in words (E. coli) | overall outcome of the screening of Table 3, in words [1] | growth and fermentation vs positive control, Lj-1 (L. jensenii; L. jensenii KC17-4297-18, Bladder) | growth and fermentation vs positive control, Lc-3 (L. crispatus; L. crispatus KC18-1173-1, Bladder) |
| --- | --- | --- | --- | --- | --- | --- | --- | --- | --- | --- | --- | --- | --- | --- | --- | --- | --- |
| CO[C@H]1O[C@H](CO)[C@@H](O)[C@H](O)[C@H]1O [Alpha-Methyl-D-Glucoside] | + | + | + | 0 | 0 | 0 | 0 | 0 | 0 | 0 | 0 | 0 | 0 | did not grow or ferment | growing at least some of the commensal bacterial species and either having less growth than the positive control or almost no growth of the pathogenic bacterial species | – | – |
| OC[C@H]1O[C@H](OC[C@H]2OC(O)(CO)[C@@H](O)[C@@H]2O)[C@H](O)[C@@H](O)[C@@H]1O (stereo partly drawn) [Palatinose (isomaltulose), isomaltulose] | – | – | ++ | 0 | 0 | 0 | 0 | 0 | 0 | 0 | 0 | 0 | 0 | did not grow or ferment | growing at least some of the commensal bacterial species and either having less growth than the positive control or almost no growth of the pathogenic bacterial species | + | ++ |
